Assay [1] relates to Mice L-M cells. Kind of assay: Inducing activities of TNF in vitro (cytotoxicity of serum from treated mice). The assay is classed as cell-based, mice (ICR male mice serum; mice L-M cells). Particulars: Mus musculus, iv; 10 μg via tail vein, serum 90 mins after; L-M cells 48 hrs; read-out: Cytotoxicities. As for the experimental part: (2) Inducing activities of TNF in vitro
Inducing activity of TNF in vitro was measured by the following test system.
Corye parvum (manufactured by Ribi Immuno Chem. Research Inc.) was administered in ICR male mice 6-weeks old through the tail vein as priming agent. Ten days later, the compounds of the present invention (10 μg) were administered through tail vein as eliciting agent. 90 mins after the administration, blood was collected from the hearts, and blood serums were separated.
Mice L-M cells (10^4 /100 μl/well) suspended in a mixture of the diluted serum solution (100 μl/well) and RPMI 1640 cultivating solution (10% FEBS and 0.2% glucose; manufactured by Nissui Pharmaceutical Co.) were cultivated in an atmosphere of a mixed gas of 5% CO2 -[…], for 48 hrs at 37° C., after adding ^3 H-tymidine taken (0.5 μCi/20 μl/well). Amounts of ^3 H-tymidine taken into cells during the cultivation were measured.
Inducing activities of TNF were measured by cytotoxicity calculated as follows: [formula]

Assay [2] has as its system lympha cells. Put plainly: Mitogenic activity in vitro (Blastogenic index). Particulars: Mus musculus, Lymphocyte; terminal concentration 1 μg/ml; ratio of 3H-tymidine uptake vs blank control; read-out: Blastgenic Index. The assay is classed as cell-based, C3H/He male mice. How it is done: (1) Mitogenic activity in vitro
Mitogenic activity means activity of activating mitogenic cell division, and in this test system, the amount of tymidine taken into lympha cells was measured and a ratio determined against a blank control call (Blastogenic index) was calculated.
For example, adding the compound prepared in example 1(c) to the test system induced 30 times the amount of tymidine taken into the lympha cells versus the control.
The amounts were measured by density of a radiolabel.
Mytogenic activity in vitro was measured by the following method (See Procedure Method of Immunoexperiment pp 315 published by Japan Immunology Society).
C3H/He male mice 6 weeks old were killed by bloodletting, and their spleens were isolated and homogenized. Homogenizing liquids were filtered with gauze, and suspending cells were prepared with PBS solution. After washing, lymphacytes fractions were gathered with lympholight M. Lymphacytes were suspended in RPMI 1640 cultivation solution (10% FEBS), and the solution was divided into 5×10^5 cells/180 μl/wells. Ten times concentration of the terminal concentration (1 μg/ml) of the compounds of the present invention were added with 20 μl portions to each of the wells.
After cultivation, ^3 H-tymidine 0.5 μCi/20 μl was added to the each cells. Cultivation was continued at 37° C. for another 24 hrs, and amounts of ^3 H-tymidine taken into the cells were measured. Mitogenic activities were calculated as by Blastogenic index in as follows. [formula]

Take `CCCCCCCCCCC[C@H](CC(=O)N[C@H]1C(O)O[C@H](CO)[C@@H](OS(=O)(=O)O)[C@@H]1OC(=O)CCCCCCCCc1ccccc1)OC(=O)CCCCCCCCc1ccccc1` (stereo partly drawn) [1(h), 2-deoxy-2-[3R-(9-phenylnonanoyloxy)tetradecanoyl]amino-3-O-(9-phenylnonanoyl)-4-O-sulfo-D-glucopyranose]: the cytotoxicity at 0.01 mg in assay [1] is 81%. Also, the fold induction at 1 µg/mL in assay [2] is 37. For `CCCCCCCCCCC[C@@H](CC(=O)N[C@H]1C(O)O[C@H](CO)[C@@H](OS(=O)(=O)O)[C@@H]1OC(=O)CCCCCCCCc1ccc(Cl)cc1)OC(=O)CCCCCCCCc1ccc(Cl)cc1` (stereo partly drawn) [1(j), 2-deoxy-2-[3S-[9-(4-chlorophenyl)nonanoyloxy]tetradecanoyl]amino-3-O-[9-(4-chlorophenyl)nonanoyl]-4-O-sulfo-D-glucopyranose], the cytotoxicity at 0.01 mg in assay [1] amounted to 69%. Further, in assay [2], the fold induction at 1 µg/mL is 25.

For the compound `CCCCCCCCCCCC(CC(=O)N[C@H]1COC[C@@H](OS(=O)(=O)O)[C@@H]1OC(=O)CCCCCCCCc1ccccc1)OC(=O)CCCCCCCCc1ccccc1` (single isomer, unassigned) [Example 3, 2-deoxy-2-[3-(9-phenylnonanoyl)oxytetradecanoyl]amino-3-O-(9-phenylnonanoyl)-4-O-sulfo-1,5-anhydro-D-xylitol], the cytotoxicity at 0.01 mg in assay [1] stood at 50.7%.

As for `CCCCCCCCCCC[C@H](CC(=O)N[C@H]1CO[C@H](CO)[C@@H](OS(=O)(=O)O)[C@@H]1OC(=O)CCCCCCCCc1ccccc1)OC(=O)CCCCCCCCc1ccccc1` [1(s), 2-deoxy-2-[3R-(9-phenylnonanoyloxy)tetradecanoyl]amino-3-O-(9-phenylnonanoyl)-4-O-sulfo-1,5-anhydro-D-glucitol], the cytotoxicity at 0.01 mg in assay [1] stood at 100%. For the same compound, the fold induction at 1 µg/mL in assay [2] is 58. With `O=C(C[C@H](CCCCCCc1ccccc1)OC(=O)CCCCCCCCc1ccccc1)N[C@H]1C(O)O[C@H](CO)[C@@H](OS(=O)(=O)O)[C@@H]1OC(=O)CCCCCCCCc1ccccc1` (stereo partly drawn) [1(r), 2-deoxy-2-[3S-(9-phenylnonanoyloxy)-9-phenylnonanoyl]amino-3-O-(9-phenylnonanoyl)-4-O-sulfo-D-glucopyranose], in assay [1], the cytotoxicity at 0.01 mg was determined as 86%. Besides, the fold induction at 1 µg/mL in assay [2] is 17.

In the case of `CCCCCCCCCCC[C@@H](CC(=O)N[C@H]1C(O)O[C@H](CO)[C@@H](OS(=O)(=O)O)[C@@H]1OC(=O)CCCCCCCCCc1ccccc1)OC(=O)CCCCCCCCCc1ccccc1` (stereo partly drawn) [1(d), 2-deoxy-2-[3S-(10-phenyldecanoyloxy)tetradecanoyl]amino-3-O-(10-phenyldecanoyl)-4-O-sulfo-D-glucopyranose], in assay [1], the cytotoxicity at 0.01 mg is 95%. Besides, in assay [2], the fold induction at 1 µg/mL came to 28.

As for `CCCCCCCCCCCCCC(=O)OC(CCCCCCCCCCC)CC(=O)N[C@H]1COC[C@@H](OS(=O)(=O)O)[C@@H]1OC(=O)CCCCCCCCCCCCC` (single isomer, unassigned) [3(b), 2-deoxy-2-[3-tetradecanoyloxytetradecanoyl]amino-3-O-tetradecanoyl-4-O-sulfo-1,5-anhydro-D-xylitol], the cytotoxicity at 0.01 mg in assay [1] was 30.2%. Moreover, the fold induction at 1 µg/mL in assay [2] came out at 13.7.

The record behind these values is patent USRE36385E, “Glucopyranose derivatives” (Ono Pharmaceutical Co., Ltd., priority 1985, dated 1999).
